Experimental data reported in US11827657B2, “Boron containing pyrazole compounds, compositions comprising them, methods and uses thereof” (BOEHRINGER INGELHEIM ANIMAL HEALTH USA INC., priority 2020, dated 2023).

target: JAK1 (Homo sapiens, UniProt P23458); experiment: Biochemical Kinase Assay (JAK), 33P-ATP filter-binding; conditions: Biochemical Kinase Inhibition Assay; potency level of IC50; read-out: JAK1 (range)
Protocol: Biochemical Kinase Assay Protocol (JAK) • Reagent: Base Reaction buffer; 20 mM Hepes (pH 7.5), 10 mM MgCl2, 1 mM EGTA, 0.02% Brij™ 35, 0.02 mg/ml BSA, 0.1 mM Na3VO4, 2 mM DTT, 1% DMSO, where required cofactors were added individually to each kinase reaction.
Reaction Procedure: • 1. Prepared indicated substrate in freshly prepared Base Reaction Buffer • 2. Delivered any required cofactors to the substrate solution above • 3. Delivered indicated kinase into the substrate solution and gently mix • 4. Delivered compounds in DMSO into the kinase reaction mixture by Acoustic technology (Echo550; nanoliter range), incubated for 20 minutes at room temperature • 5. Delivered 33P-ATP into the reaction mixture to initiate the reaction. • 6. Incubated kinase reaction for 2 hours at room temperature • 7. Reactions were spotted onto P81 ion exchange paper • 8. Detected kinase activity by filter-binding method.
Compounds according to the present invention were tested in the Biochemical Kinase Assay Protocol. The results are provided below in Table 1, wherein the potency levels A, B, and C in the columns labeled JAK1 (range) correspond to IC50 as follows: A<10 nM; B=10-50 nM and C>50 nM. The Example Number entries formatted ##a represent stereoisomer one and entries formatted ##b represent stereoisomer two.

JAK1, sequence (P23458 whole entry, species assumed): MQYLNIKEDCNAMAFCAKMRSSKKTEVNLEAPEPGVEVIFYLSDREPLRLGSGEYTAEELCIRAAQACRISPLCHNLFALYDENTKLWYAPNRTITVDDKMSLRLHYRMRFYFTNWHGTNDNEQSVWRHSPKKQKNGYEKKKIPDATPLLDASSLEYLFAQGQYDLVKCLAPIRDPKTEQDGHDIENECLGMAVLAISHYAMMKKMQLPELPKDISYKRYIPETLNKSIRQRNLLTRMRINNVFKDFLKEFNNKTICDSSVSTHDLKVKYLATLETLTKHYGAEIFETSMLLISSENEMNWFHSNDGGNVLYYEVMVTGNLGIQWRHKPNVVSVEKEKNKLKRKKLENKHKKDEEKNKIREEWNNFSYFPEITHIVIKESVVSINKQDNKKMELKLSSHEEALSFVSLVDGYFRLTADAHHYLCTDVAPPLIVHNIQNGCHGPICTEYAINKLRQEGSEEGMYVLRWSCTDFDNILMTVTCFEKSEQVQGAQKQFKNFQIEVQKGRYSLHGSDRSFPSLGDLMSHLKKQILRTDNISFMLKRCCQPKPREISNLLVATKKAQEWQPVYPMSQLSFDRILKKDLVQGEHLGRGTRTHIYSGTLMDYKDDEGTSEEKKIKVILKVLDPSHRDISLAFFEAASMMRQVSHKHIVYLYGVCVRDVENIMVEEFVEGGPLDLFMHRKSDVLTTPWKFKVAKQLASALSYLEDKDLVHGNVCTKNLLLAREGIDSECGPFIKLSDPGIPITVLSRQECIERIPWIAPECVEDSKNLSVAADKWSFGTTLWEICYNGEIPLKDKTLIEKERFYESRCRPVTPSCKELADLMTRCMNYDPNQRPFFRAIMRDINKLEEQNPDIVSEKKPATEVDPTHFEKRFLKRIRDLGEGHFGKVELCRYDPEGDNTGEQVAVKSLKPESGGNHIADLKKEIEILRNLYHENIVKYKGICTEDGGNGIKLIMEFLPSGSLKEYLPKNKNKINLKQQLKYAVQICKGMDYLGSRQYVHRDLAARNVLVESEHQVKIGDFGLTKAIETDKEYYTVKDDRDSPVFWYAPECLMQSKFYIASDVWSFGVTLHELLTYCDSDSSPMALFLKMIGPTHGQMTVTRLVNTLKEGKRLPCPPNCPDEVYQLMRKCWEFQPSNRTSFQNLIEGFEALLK

| IC50 | Structure (SMILES) |
| --- | --- |
| 0.01 to 0.05 µM | N#C[C@@H]1CCOC[C@H]1n1cc(C(N)=O)c(Nc2cc(F)c3c(c2)COB3O)n1 (single isomer, unassigned) [Example 38a, 1-[trans-4-cyanotetrahydro-2H-pyran-3-yl]-3-[(7-fluoro-1-hydroxy-3H-2,1-benzoxaborol-5-yl)amino]pyrazole-4-carboxamide] |
| < 0.01 µM | N#C[C@@H]1CCOC[C@H]1n1cc(C(N)=O)c(Nc2cc(F)c3c(c2)COB3O)n1 (single isomer, unassigned) [Example 38b, 1-[trans-4-cyanotetrahydropyran-3-yl]-3-[(7-fluoro-1-hydroxy-3H-2,1-benzoxaborol-5-yl)amino]pyrazole-4-carboxamide] |
| < 0.01 µM | N#C[C@@H]1CCOC[C@H]1n1cc(C(N)=O)c(Nc2ccc3c(c2)COB3O)n1 (single isomer, unassigned) [Example 41a, 1-(trans-4-cyanotetrahydro-2H-pyran-3-yl)-3-((1-hydroxy-1,3-dihydrobenzo[c][1,2]oxaborol-5-yl)amino)-1H-pyrazole-4-carboxamide] |
| < 0.01 µM | N#C[C@@H]1CCOC[C@H]1n1cc(C(N)=O)c(Nc2ccc3c(c2)COB3O)n1 (single isomer, unassigned) [Example 41b, 1-(trans-4-cyanotetrahydro-2H-pyran-3-yl)-3-((1-hydroxy-1,3-dihydrobenzo[c][1,2]oxaborol-5-yl)amino)-1H-pyrazole-4-carboxamide] |
| < 0.01 µM | N#C[C@@H]1CCOC[C@H]1n1cc(C(N)=O)c(Nc2ccc3c(c2)B(O)OCC3)n1 (single isomer, unassigned) [Example 42a, 1-[trans-4-cyanotetrahydro-2H-pyran-3-yl]-3-[(1-hydroxy-3,4-dihydro-2,1-benzoxaborinin-7-yl)amino]pyrazole-4-carboxamide] |
| < 0.01 µM | N#C[C@@H]1CCOC[C@H]1n1cc(C(N)=O)c(Nc2ccc3c(c2)B(O)OCC3)n1 (single isomer, unassigned) [Example 42b, 1-[trans-4-cyanotetrahydro-2H-pyran-3-yl]-3-[(1-hydroxy-3,4-dihydro-2,1-benzoxaborinin-7-yl)amino]pyrazole-4-carboxamide] |
| < 0.01 µM | N#C[C@@H]1CCOC[C@H]1n1cc(C(N)=O)c(Nc2ccc3c(c2)C(Cl)=CB(O)O3)n1 (single isomer, unassigned) [Example 43a, 3-[(4-chloro-2-hydroxy-1,2-benzoxaborinin-6-yl)amino]-1-[trans-4-cyanotetrahydro-2H-pyran-3-yl]pyrazole-4-carboxamide] |
| < 0.01 µM | N#C[C@@H]1CCOC[C@H]1n1cc(C(N)=O)c(Nc2ccc3c(c2)C(Cl)=CB(O)O3)n1 (single isomer, unassigned) [Example 43b, 3-[(4-chloro-2-hydroxy-1,2-benzoxaborinin-6-yl)amino]-1-[trans-4-cyanotetrahydro-2H-pyran-3-yl]pyrazole-4-carboxamide] |
| < 0.01 µM | N#C[C@@H]1CCOC[C@H]1n1cc(C(N)=O)c(Nc2cc(F)c3c(c2)C=CB(O)O3)n1 (single isomer, unassigned) [Example 44a, 1-[trans-4-cyanotetrahydro-2H-pyran-3-yl]-3-[(8-fluoro-2-hydroxy-1,2-benzoxaborinin-6-yl)amino]pyrazole-4-carboxamide] |
| < 0.01 µM | N#C[C@@H]1CCOC[C@H]1n1cc(C(N)=O)c(Nc2cc(F)c3c(c2)C=CB(O)O3)n1 (single isomer, unassigned) [Example 44b, 1-[trans-4-cyanotetrahydro-2H-pyran-3-yl]-3-[(8-fluoro-2-hydroxy-1,2-benzoxaborinin-6-yl)amino]pyrazole-4-carboxamide] |
| < 0.01 µM | CC1=Cc2cc(Nc3nn([C@@H]4CCC[C@H]4C#N)cc3C(N)=O)cc(F)c2OB1O (single isomer, unassigned) [Example 45a, 1-[trans-2-cyanocyclopentyl]-3-[(8-fluoro-2-hydroxy-3-methyl-1,2-benzoxaborinin-6-yl)amino]pyrazole-4-carboxamide] |
| > 0.05 µM | Cc1cc2c(cc1Nc1nn([C@@H]3COCC[C@H]3C#N)cc1C(N)=O)C=CB(O)O2 (single isomer, unassigned) [Example 46a, 1-(trans-4-cyanotetrahydro-2H-pyran-3-yl)-3-((2-hydroxy-7-methyl-2H-benzo[e][1,2]oxaborinin-6-yl)amino)-1H-pyrazole-4-carboxamide] |
| > 0.05 µM | Cc1cc2c(cc1Nc1nn([C@@H]3COCC[C@H]3C#N)cc1C(N)=O)C=CB(O)O2 (single isomer, unassigned) [Example 46b, 1-(trans-4-cyanotetrahydro-2H-pyran-3-yl)-3-((2-hydroxy-7-methyl-2H-benzo[e][1,2]oxaborinin-6-yl)amino)-1H-pyrazole-4-carboxamide] |
| < 0.01 µM | CC1=CB(O)Oc2c(C)cc(Nc3nn([C@@H]4COCC[C@H]4C#N)cc3C(N)=O)cc21 (single isomer, unassigned) [Example 47a, 1-[trans-4-cyanotetrahydro-2H-pyran-3-yl]-3-[(2-hydroxy-4,8-dimethyl-1,2-benzoxaborinin-6-yl)amino]pyrazole-4-carboxamide] |
| < 0.01 µM | CC1=CB(O)Oc2c(C)cc(Nc3nn([C@@H]4COCC[C@H]4C#N)cc3C(N)=O)cc21 (single isomer, unassigned) [Example 47b, 1-[trans-4-cyanotetrahydro-2H-pyran-3-yl]-3-[(2-hydroxy-4,8-dimethyl-1,2-benzoxaborinin-6-yl)amino]pyrazole-4-carboxamide] |
| < 0.01 µM | CC(C)C1=Cc2cc(Nc3nn([C@@H]4COCC[C@H]4C#N)cc3C(N)=O)ccc2OB1O (single isomer, unassigned) [Example 48a, 1-(trans-4-cyanotetrahydro-2H-pyran-3-yl)-3-((2-hydroxy-3-isopropyl-2H-benzo[e][1,2]oxaborinin-6-yl)amino)-1H-pyrazole-4-carboxamide] |
| < 0.01 µM | CC(C)C1=Cc2cc(Nc3nn([C@@H]4COCC[C@H]4C#N)cc3C(N)=O)ccc2OB1O (single isomer, unassigned) [Example 48b, 1-(trans-4-cyanotetrahydro-2H-pyran-3-yl)-3-((2-hydroxy-3-isopropyl-2H-benzo[e][1,2]oxaborinin-6-yl)amino)-1H-pyrazole-4-carboxamide] |
| < 0.01 µM | N#C[C@@H]1CCOC[C@H]1n1cc(C(N)=O)c(Nc2ccc3c(c2)C=CB(O)O3)n1 (single isomer, unassigned) [Example 51a, 1-[trans-4-cyanotetrahydro-2H-pyran-3-yl]-3-[(2-hydroxy-1,2-benzoxaborinin-6-yl)amino]pyrazole-4-carboxamide] |
| < 0.01 µM | N#C[C@@H]1CCOC[C@H]1n1cc(C(N)=O)c(Nc2ccc3c(c2)C=CB(O)O3)n1 (single isomer, unassigned) [Example 51b, 1-[trans-4-cyanotetrahydro-2H-pyran-3-yl]-3-[(2-hydroxy-1,2-benzoxaborinin-6-yl)amino]pyrazole-4-carboxamide] |
| < 0.01 µM | N#C[C@@H]1CCOC[C@H]1n1cc(C(N)=O)c(Nc2cc(Cl)c3c(c2)COB3O)n1 (single isomer, unassigned) [Example 52a, 3-((7-chloro-1-hydroxy-1,3-dihydrobenzo[c][1,2]oxaborol-5-yl)amino)-1-(trans-4-cyanotetrahydro-2H-pyran-3-yl)-1H-pyrazole-4-carboxamide] |
| < 0.01 µM | N#C[C@@H]1CCOC[C@H]1n1cc(C(N)=O)c(Nc2cc(Cl)c3c(c2)COB3O)n1 (single isomer, unassigned) [Example 52b, 3-((7-chloro-1-hydroxy-1,3-dihydrobenzo[c][1,2]oxaborol-5-yl)amino)-1-(trans-4-cyanotetrahydro-2H-pyran-3-yl)-1H-pyrazole-4-carboxamide] |
| > 0.05 µM | N#C[C@@H]1CCOC[C@H]1n1cc(C(N)=O)c(Nc2cc3c(c(OC(F)(F)F)c2)OB(O)C=C3)n1 (single isomer, unassigned) [Example 53a, 1-[trans-4-cyanotetrahydro-2H-pyran-3-yl]-3-[[2-hydroxy-8-(trifluoromethoxy)-1,2-benzoxaborinin-6-yl]amino]pyrazole-4-carboxamide] |
| < 0.01 µM | N#C[C@@H]1CCOC[C@H]1n1cc(C(N)=O)c(Nc2cc3c(c(OC(F)(F)F)c2)OB(O)C=C3)n1 (single isomer, unassigned) [Example 53b, 1-[trans-4-cyanotetrahydro-2H-pyran-3-yl]-3-[[2-hydroxy-8-(trifluoromethoxy)-1,2-benzoxaborinin-6-yl]amino]pyrazole-4-carboxamide] |
| < 0.01 µM | N#C[C@@H]1CCOC[C@H]1n1cc(C(N)=O)c(Nc2cc3c(c(C4CC4)c2)OB(O)C=C3)n1 (single isomer, unassigned) [Example 55a, 1-[trans-4-cyanotetrahydro-2H-pyran-3-yl]-3-[(8-cyclopropyl-2-hydroxy-1,2-benzoxaborinin-6-yl)amino]pyrazole-4-carboxamide] |
| > 0.05 µM | N#C[C@@H]1CCOC[C@H]1n1cc(C(N)=O)c(Nc2cc3c(c(C4CC4)c2)OB(O)C=C3)n1 (single isomer, unassigned) [Example 55b, 1-[trans-4-cyanotetrahydro-2H-pyran-3-yl]-3-[(8-cyclopropyl-2-hydroxy-1,2-benzoxaborinin-6-yl)amino]pyrazole-4-carboxamide] |
| < 0.01 µM | CC1=CB(O)Oc2ccc(Nc3nn(C4COCCC4C#N)cc3C(N)=O)cc21 (stereo not drawn) [Example 3, 1-[trans-4-cyanotetrahydro-2H-pyran-3-yl]-3-[(2-hydroxy-4-methyl-1,2-benzoxaborinin-6-yl)amino]pyrazole-4-carboxamide] |
